Assay results as given in ChEMBL document CHEMBL1201862, “PubChem BioAssay data set” (2004).
Calls of active or inactive are those of the source.

Experiments:
[1] = cells; type: functional
[2] = HEK293T cytotoxicity, dose response, cytotoxicity control for miR-122 modulator project, cell-based, inhibitor set, cherry-pick, set 2 (AID 720697); type: functional
[3] = biological target: Ras and Rab interactor 1/Tyrosine-protein kinase ABL1 (Homo sapiens, UniProt P00519+Q13671); type: functional;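 also: biochemical TR-FRET dose-response test measuring inhibition of binding between Rin1 and Abl proteins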
Sequence of Ras and Rab interactor 1/Tyrosine-protein kinase ABL1 (P00519 whole entry): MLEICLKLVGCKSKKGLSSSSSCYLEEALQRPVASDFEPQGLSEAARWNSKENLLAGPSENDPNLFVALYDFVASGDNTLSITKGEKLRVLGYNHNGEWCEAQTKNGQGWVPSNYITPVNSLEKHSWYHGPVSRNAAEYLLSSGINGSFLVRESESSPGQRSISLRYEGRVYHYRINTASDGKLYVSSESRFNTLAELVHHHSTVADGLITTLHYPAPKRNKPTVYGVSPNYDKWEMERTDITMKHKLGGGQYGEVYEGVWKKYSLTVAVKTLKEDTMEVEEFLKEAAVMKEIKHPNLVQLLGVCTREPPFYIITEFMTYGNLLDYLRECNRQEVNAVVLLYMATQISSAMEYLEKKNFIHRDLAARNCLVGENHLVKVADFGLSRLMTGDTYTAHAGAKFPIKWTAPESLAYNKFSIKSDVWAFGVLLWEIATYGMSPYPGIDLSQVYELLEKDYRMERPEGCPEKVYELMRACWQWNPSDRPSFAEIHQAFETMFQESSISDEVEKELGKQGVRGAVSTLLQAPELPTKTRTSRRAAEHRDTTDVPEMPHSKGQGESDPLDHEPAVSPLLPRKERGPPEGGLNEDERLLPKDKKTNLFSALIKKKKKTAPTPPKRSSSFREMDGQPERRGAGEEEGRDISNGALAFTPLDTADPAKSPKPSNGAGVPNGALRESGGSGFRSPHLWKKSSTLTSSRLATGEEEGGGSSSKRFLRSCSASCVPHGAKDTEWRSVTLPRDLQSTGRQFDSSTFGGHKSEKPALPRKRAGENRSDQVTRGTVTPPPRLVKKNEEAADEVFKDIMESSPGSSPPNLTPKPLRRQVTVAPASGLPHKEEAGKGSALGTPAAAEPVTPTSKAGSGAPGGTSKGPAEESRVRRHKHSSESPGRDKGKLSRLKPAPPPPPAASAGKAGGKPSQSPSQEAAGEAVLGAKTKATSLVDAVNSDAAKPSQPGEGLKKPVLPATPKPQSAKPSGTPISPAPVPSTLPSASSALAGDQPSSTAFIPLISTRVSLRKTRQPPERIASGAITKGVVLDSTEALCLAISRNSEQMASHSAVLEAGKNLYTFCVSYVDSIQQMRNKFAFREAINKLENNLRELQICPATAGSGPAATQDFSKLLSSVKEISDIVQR
Sequence of Ras and Rab interactor 1/Tyrosine-protein kinase ABL1 (Q13671 whole entry): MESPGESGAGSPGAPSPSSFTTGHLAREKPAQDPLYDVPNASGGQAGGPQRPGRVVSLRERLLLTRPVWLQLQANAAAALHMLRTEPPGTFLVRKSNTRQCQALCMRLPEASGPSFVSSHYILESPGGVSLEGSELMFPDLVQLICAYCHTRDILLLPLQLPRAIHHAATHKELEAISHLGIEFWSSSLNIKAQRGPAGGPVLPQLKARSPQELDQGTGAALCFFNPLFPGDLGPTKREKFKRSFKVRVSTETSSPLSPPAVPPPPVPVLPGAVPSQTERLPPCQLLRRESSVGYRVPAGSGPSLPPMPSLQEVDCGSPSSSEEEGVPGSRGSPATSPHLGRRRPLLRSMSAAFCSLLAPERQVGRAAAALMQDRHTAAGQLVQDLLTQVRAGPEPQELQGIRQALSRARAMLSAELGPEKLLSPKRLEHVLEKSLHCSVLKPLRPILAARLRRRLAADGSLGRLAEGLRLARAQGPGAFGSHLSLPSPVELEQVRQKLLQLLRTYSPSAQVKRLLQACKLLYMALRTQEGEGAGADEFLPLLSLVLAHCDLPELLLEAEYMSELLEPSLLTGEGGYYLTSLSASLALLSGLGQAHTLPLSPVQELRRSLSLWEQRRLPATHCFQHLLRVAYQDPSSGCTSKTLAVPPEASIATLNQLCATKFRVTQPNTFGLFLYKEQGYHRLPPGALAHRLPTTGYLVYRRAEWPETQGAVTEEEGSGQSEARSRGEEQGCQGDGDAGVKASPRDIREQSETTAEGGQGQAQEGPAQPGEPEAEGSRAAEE

[4] = biological target: T1, Low molecular weight phosphotyrosine protein phosphatase (Homo sapiens, UniProt P24666); type: functional; conditions: read-out: IC50_Mean
T1 sequence (P24666 whole entry): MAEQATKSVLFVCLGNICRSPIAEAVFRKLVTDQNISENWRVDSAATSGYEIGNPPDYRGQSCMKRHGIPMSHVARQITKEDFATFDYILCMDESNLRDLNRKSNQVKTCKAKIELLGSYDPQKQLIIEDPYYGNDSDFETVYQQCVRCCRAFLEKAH

[5] = biological target: T1, Low molecular weight phosphotyrosine protein phosphatase; type: functional; conditions: read-out: IC50_Mean; remark: listed apart in the source
[6] = inhibitors of PGC1a acetylation in cells, dose response, cell-based, cherry-picked samples (AID 720514); type: functional;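 also: potency may reflect raised or lowered acetylation signal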
[7] = biological target: T2, Corticotropin-releasing factor receptor 2/Corticotropin-releasing factor-binding protein (Homo sapiens, UniProt P24387+Q13324); test: Dose Response confirmation of uHTS hits for small molecule antagonists of the CRF-binding protein and CRF-R2 receptor complex.; type: functional; conditions: read-out: IC50_Mean
T2 sequence (Q13324 whole entry): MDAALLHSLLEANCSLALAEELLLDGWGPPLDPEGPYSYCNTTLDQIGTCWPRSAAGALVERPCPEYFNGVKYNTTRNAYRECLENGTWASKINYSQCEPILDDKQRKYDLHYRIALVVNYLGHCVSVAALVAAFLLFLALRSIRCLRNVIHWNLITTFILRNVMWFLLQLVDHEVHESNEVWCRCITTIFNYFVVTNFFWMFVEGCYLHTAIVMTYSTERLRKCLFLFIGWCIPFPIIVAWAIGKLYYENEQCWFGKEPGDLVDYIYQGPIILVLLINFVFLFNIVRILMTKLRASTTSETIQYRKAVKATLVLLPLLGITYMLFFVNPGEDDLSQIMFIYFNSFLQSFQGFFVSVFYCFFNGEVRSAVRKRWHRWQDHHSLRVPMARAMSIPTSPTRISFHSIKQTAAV
T2 sequence (P24387 whole entry): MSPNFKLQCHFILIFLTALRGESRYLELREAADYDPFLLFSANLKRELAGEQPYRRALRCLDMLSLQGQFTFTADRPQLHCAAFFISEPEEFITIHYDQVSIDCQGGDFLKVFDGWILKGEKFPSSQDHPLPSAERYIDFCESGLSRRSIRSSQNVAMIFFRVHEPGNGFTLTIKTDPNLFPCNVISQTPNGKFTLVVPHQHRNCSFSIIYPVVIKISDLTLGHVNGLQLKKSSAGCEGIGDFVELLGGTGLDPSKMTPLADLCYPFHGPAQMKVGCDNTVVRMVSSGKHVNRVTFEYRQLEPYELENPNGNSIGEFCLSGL

[8] = biological target: T2, Corticotropin-releasing factor receptor 2/Corticotropin-releasing factor-binding protein; test: activators of CRF receptor 2 with binding protein – uHTS hits, confirmation (AID 602473); type: functional; conditions: read-out: EC50_Mean
[9] = CRF-BP/CRF-R2 complex antagonists, dose response, cell-based, uHTS hits, 384-well (AID 651639); type: functional, Homo sapiens; conditions: read-out: IC50_Mean
[10] = biological target: Troponin, cardiac muscle (Homo sapiens, UniProt P19429+P45379+P63316); test: inhibitors of cardiac thin filament calcium sensitivity, dose response, biochemical, fluorescence, cardiac regulated thin filaments, triplicate IC50 (AID 504742); type: protein-complex assay
[11] = biological target: T3, Small ubiquitin-related modifier 1 (Homo sapiens, UniProt P63165); test: inhibitors of SUMO1 peptide binding, dose response, biochemical, fluorescence polarization, uHTS hits (AID 624382); type: functional; conditions: read-out: IC50_Mean
T3 sequence (P63165 whole entry): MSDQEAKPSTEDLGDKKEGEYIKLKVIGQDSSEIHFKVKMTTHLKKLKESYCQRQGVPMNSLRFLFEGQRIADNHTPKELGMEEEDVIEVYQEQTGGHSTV

[12] = biological target: T4, Long-chain-fatty-acid--AMP ligase FadD28 (Mycobacterium tuberculosis, UniProt P9WQ59); test: Fluorescence polarization aasay to screen for inhibitors that compete for the binding of FadD28 to a bisubstrate Measured in Biochemical System Using Plate Reader - 2147-01_Inhibitor_Dose_CherryPick_Activity.; type: functional, Mycobacterium tuberculosis H37Rv
T4 sequence (P9WQ59 whole entry): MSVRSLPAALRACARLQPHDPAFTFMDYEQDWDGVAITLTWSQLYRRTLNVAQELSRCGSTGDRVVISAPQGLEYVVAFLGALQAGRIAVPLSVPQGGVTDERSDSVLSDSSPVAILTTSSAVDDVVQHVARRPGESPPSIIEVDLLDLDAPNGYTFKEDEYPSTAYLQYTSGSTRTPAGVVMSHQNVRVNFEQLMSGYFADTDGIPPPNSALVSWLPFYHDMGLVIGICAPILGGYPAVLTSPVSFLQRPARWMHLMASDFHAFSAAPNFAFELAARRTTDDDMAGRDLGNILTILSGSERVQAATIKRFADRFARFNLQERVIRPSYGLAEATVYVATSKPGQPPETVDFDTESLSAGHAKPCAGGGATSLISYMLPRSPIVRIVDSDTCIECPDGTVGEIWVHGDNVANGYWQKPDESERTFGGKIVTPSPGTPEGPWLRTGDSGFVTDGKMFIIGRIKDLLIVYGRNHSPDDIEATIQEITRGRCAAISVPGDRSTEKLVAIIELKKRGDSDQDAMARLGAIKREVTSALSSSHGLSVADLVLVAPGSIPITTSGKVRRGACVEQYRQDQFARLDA

[13] = biological target: T3, Small ubiquitin-related modifier 1; test: inhibitors of SUMO1 partner interactions, dose response, biochemical, FRET (AID 624383); type: functional; conditions: read-out: IC50_Mean
[14] = biological target: T5, Rac GTPase-activating protein 1 (Homo sapiens, UniProt Q9H0H5); test: MgcRacGAP GTPase-activating activity inhibitors, confirmation, biochemical, ADP Hunter fluorescence, primary and confirmatory (AID 624330); type: functional
T5 sequence (Q9H0H5 whole entry): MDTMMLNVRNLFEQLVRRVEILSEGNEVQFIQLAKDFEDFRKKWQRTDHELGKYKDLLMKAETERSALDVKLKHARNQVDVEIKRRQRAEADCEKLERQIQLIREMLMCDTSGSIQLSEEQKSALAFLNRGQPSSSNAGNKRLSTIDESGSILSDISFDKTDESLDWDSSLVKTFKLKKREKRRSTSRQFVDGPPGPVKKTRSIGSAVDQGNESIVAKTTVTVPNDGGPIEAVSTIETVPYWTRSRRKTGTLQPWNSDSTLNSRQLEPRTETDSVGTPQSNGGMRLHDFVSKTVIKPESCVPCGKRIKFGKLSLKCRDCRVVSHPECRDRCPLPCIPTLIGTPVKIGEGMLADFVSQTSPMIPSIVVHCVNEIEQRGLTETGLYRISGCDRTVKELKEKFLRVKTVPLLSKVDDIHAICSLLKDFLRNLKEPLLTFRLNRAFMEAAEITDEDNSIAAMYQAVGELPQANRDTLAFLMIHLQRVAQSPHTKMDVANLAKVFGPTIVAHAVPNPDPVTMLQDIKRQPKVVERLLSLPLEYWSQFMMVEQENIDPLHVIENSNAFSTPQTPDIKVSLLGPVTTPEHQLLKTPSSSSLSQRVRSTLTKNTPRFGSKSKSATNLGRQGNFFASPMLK

[15] = A549 cell cytotoxicity, dose response, cytotoxicity control, plate reader, cherry-pick, antagonist series (AID 743412); type: functional, cell-based
[16] = HepG2 cell cytotoxicity, dose response, cytotoxicity control, plate reader, cherry-pick, antagonist series (AID 743416); type: functional, cell-based
[17] = LGR2 antagonists, dose response, cell-based, HEK293, CRE-luciferase reporter, cherry pick, set 2 (AID 743343); type: functional;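 also: transfected cells were stimulated with diluted bursicon conditioned medium after compound addition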
[18] = MC4R antagonists, dose response, counter-screen for LGR2 antagonist project, cell-based, plate reader, cherry pick (AID 743444); type: functional;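 also: transfected HEK 293 cells stimulated with alpha-MSH peptide; potency of inhibitors of the alpha-MSH evoked signal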
[19] = NIH-3T3 fibroblast cytotoxicity, dose response, cytotoxicity control, cell-based, fluorescence, Alamar Blue, secondary assay (AID 2327); type: functional;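 also: NIH-3T3 mouse fibroblasts cultured with fluconazole at 8 µg/mL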
[20] = C. albicans growth with fluconazole, confirmation, fluorescence, retest (AID 2467); type: functional, cell-based
[21] = biological target: T6, Serine/threonine-protein phosphatase (Candida dubliniensis (strain CD36 / CBS 7987 / NCPF 3949 / NRRLY-17841) (Yeast), UniProt B9W6M3); test: calcineurin pathway inhibitors in yeast reporter, dose response, S. cerevisiae, CDRE-lacZ, luminescence, secondary (AID 2388); type: functional, cell-based;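 also: yeast reporter cells carrying a calcineurin-responsive lacZ construct stimulated with calcium chloride; luminescent beta-galactosidase reporter signal in whole cells rather than isolated phosphatase activity; potency for inhibition where a drop in reporter signal means calcineurin blockade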
T6 sequence (B9W6M3 whole entry): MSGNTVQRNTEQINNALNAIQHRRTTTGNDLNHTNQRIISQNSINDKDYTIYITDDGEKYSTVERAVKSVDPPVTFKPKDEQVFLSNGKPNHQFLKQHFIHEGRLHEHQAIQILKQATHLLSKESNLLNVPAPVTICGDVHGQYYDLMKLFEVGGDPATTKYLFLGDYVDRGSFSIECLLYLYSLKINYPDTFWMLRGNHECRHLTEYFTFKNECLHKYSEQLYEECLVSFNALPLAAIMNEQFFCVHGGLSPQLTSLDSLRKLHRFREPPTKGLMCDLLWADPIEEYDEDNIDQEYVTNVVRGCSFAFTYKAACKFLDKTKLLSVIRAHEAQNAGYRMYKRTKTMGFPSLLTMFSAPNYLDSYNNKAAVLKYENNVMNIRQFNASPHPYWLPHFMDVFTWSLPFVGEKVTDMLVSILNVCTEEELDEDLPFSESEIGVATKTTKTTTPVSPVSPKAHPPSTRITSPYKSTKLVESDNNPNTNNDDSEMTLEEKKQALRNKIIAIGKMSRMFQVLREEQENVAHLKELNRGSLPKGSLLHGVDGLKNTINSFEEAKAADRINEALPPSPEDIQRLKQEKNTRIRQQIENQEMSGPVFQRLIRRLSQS

[22] = biological target: ATP-dependent molecular chaperone HSP82 (Candida albicans (strain WO-1) (Yeast), UniProt C4YTQ8); test: loss of DOC-induced GRE-beta-galactosidase reporter signal, dose response, Hsp90 inhibitor project, S. cerevisiae, luminescence (AID 2400); type: functional, cell-based;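 also: beta-galactosidase luminescence from glucocorticoid response element reporter as proxy for Hsp90 function; inhibitor potency where signal loss means Hsp90 inhibition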
Sequence of ATP-dependent molecular chaperone HSP82 (C4YTQ8 whole entry): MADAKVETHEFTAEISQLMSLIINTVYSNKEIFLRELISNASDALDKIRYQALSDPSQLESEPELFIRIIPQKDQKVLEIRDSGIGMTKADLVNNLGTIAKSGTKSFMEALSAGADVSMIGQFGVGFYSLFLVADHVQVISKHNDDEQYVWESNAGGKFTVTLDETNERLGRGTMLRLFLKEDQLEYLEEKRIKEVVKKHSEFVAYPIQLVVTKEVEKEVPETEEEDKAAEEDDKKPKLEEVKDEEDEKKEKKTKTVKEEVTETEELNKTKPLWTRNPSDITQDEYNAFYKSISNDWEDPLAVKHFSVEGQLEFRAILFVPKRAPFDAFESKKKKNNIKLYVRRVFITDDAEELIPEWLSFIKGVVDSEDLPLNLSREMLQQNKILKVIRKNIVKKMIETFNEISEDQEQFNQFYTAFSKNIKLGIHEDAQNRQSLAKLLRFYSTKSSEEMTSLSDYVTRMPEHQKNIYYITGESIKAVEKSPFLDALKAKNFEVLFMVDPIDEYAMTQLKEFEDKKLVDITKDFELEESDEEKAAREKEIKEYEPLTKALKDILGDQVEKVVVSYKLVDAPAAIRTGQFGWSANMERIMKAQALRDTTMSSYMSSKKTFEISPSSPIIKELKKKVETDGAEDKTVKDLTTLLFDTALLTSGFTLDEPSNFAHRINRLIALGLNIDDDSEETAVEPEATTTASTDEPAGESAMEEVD

Q: Which IC50 [1] does the source give for `O=C(COc1cccc2ccccc12)Nc1nc2ccccc2[nH]1` here?
A: 6.2 µM (active)

Q: What about the AC50 [2] of the same compound?
A: 8.06 µM (active)

Q: Which IC50 [3] does the source give for `Oc1nc2ccccc2n1C1CCN(C(c2ccnc3ccccc23)c2nnnn2-c2ccc3c(c2)OCCO3)CC1` (stereo not drawn) here?
A: 15.3 µM (inactive)

Q: Which IC50 [4] does the source give for `COc1ccc(Nc2ccnc3ccccc23)cc1` here?
A: 30.1 µM (inactive)

Q: What about the IC50 [5] of the same compound?
A: 23.4 µM (inactive)

Q: And the AC50 [6]?
A: 28.3 µM (active)

Q: For `Cc1c(C(=O)NCCN2CCOCC2)oc2ccc(Br)cc12`, which IC50 [3] is on record?
A: 1.02 µM (active)

Q: What does the source list for `CSc1c(C#N)sc(=S)n1-c1ccc(C)cc1`?
A: IC50 [7]: 11.9 µM (active); EC50 [8]: > 53 µM (inactive); IC50 [9]: > 20 µM (inactive)

Q: For `O=C(O)c1cc(O)c2c(c1)[C@@H]([C@H]1c3cc(C(=O)O)cc(O)c3C(=O)c3c(O[C@@H]4O[C@H](CO)[C@@H](O)[C@H](O)[C@H]4O)cccc31)c1cccc(OC3O[C@H](CO)[C@@H](O)[C@H](O)[C@H]3O)c1C2=O` (stereo partly drawn), which IC50 [10] is on record?
A: 1.82 µM (active)

Q: What about the IC50 [11] of the same compound?
A: 30.6 µM (inactive)

Q: And the AC50 [12]?
A: > 100 µM (inactive)

Q: And the IC50 [13]?
A: 1.06 µM (active)

Q: What about the IC50 [14] of the same compound?
A: 12 µM (active)

Q: Which AC50 [15] does the source give for `COc1ccc(C(=O)Nc2ccc3ncccc3c2)cc1` here?
A: 37.8 µM (active)

Q: What about the AC50 [16] of the same compound?
A: 47 µM (active)

Q: And the AC50 [17]?
A: 5.45 µM (active)

Q: And the AC50 [18]?
A: 7.29 µM (active)

Q: With `COCCn1c(=O)[nH]c(=O)c2cc(C(=O)c3cc(Cl)ccc3O)cnc21` as the compound, how does the EC50 [19] read?
A: > 160 µM (inactive)

Q: And the EC50 [20]?
A: 1.12 µM (active)

Q: What about the EC50 [21] of the same compound?
A: > 180 µM (inactive)

Q: And the EC50 [22]?
A: > 160 µM (inactive)

Q: Which IC50 [3] does the source give for `CCCn1nc(C(=O)N(C)CC(=O)Nc2ccc(OCC)c(OCC)c2)c2ccccc2c1=O` here?
A: 10.5 µM (inactive)

Q: For `O=c1cc(-c2cc3ccccc3o2)c2cc(O)ccc2o1`, which IC50 [4] is on record?
A: 24.1 µM (inactive)

Q: What about the IC50 [5] of the same compound?
A: 19.7 µM (active)

Q: For `N#CN=C(Nc1cccc(F)c1)SCc1ccccc1F`, which IC50 [7] is on record?
A: 6.82 µM (active)

Q: And the EC50 [8]?
A: > 53 µM (inactive)

Q: What about the IC50 [9] of the same compound?
A: 1.67 µM (active)

Q: Which results are given for `Nc1nc(=O)[nH]cc1F` [FLUCYTOSINE]?
A: EC50 [19]: > 160 µM (inactive); EC50 [20]: 0.252 µM (active); EC50 [21]: > 180 µM (inactive); EC50 [22]: > 160 µM (inactive)
